Reference: ChEMBL document CHEMBL1201862, “PubChem BioAssay data set” (2004)
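Test compounds were applied to cells in 96-well plates for 48 hours at 5 doses. The concentration for 50% growth inhibition is given as GI50.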 Activity calls are given as the source filed them. Rule as the data show it: active = GI50 up to about 1.1 µM and inactive = higher.

What was measured:
Assay in all cases: inhibition of tumour cell growth, NCI panel, 48 h
HOP-92 = tested on: HOP-92
OVCAR-5 = tested on: OVCAR-5
K562 = tested on: K562
NCI-H226 = tested on: NCI-H226
PC-3 = tested on: PC-3
SK-MEL-28 = tested on: SK-MEL-28
SF-539 = tested on: SF-539
Hs-578T = tested on: Hs-578T
ACHN = tested on: ACHN
A549 = tested on: A549
EKVX = tested on: EKVX
UO-31 = tested on: UO-31
MDA-MB-231 = tested on: MDA-MB-231
COLO 205 = tested on: COLO 205
SR = tested on: SR
NCI/ADR-RES = tested on: NCI/ADR-RES
SW-620 = tested on: SW-620
MCF7 = tested on: MCF7
MDA-N = tested on: MDA-N
TK-10 = tested on: TK-10

Measured: GI50

Cc1nc2c(N3CCCC3)nc(N3CCNCC3)nc2nc1NCc1ccccc1
inactive: HOP-92 2.33 µM | OVCAR-5 13 µM | K562 2.81 µM | NCI-H226 13.1 µM | PC-3 5.05 µM | SK-MEL-28 1.95 µM | SF-539 2.65 µM | Hs-578T 6.17 µM | ACHN 5.12 µM | A549 3.88 µM | EKVX 8.11 µM | UO-31 2.41 µM | MDA-MB-231 2.95 µM | COLO 205 1.24 µM | SR 2.84 µM | NCI/ADR-RES 13 µM | SW-620 2.36 µM | MCF7 2.33 µM | MDA-N 1.61 µM | TK-10 4.88 µM

COc1ccc(/C(=N/N=c2[nH]c3ccccc3[nH]2)C(=O)O)cc1
inactive: HOP-92 > 100 µM | OVCAR-5 > 100 µM | K562 > 100 µM | NCI-H226 > 100 µM | PC-3 > 100 µM | SK-MEL-28 > 100 µM | SF-539 > 100 µM | Hs-578T > 100 µM | ACHN > 100 µM | A549 > 100 µM | EKVX > 100 µM | UO-31 > 100 µM | MDA-MB-231 > 100 µM | COLO 205 > 100 µM | SR > 100 µM | NCI/ADR-RES > 100 µM | SW-620 > 100 µM | MCF7 > 100 µM | MDA-N > 100 µM | TK-10 > 100 µM

COc1cc2c(c(OC)c1OC)-c1ccc(=O)c(O)cc1[C@@H](NC(C)=O)CC2 [COLCHICEINE]
inactive: HOP-92 20.2 µM | OVCAR-5 33.5 µM | K562 15.6 µM | NCI-H226 19.7 µM | PC-3 17.8 µM | SK-MEL-28 42.5 µM | SF-539 19.1 µM | Hs-578T 21.3 µM | ACHN 18.1 µM | A549 27.7 µM | EKVX 19.7 µM | UO-31 17.6 µM | MDA-MB-231 15.4 µM | COLO 205 19.4 µM | SR 2.99 µM | NCI/ADR-RES 6.98 µM | SW-620 26.5 µM | MCF7 17 µM | MDA-N 16.9 µM | TK-10 37.9 µM

Cc1sc2[nH]c(=O)oc(=O)c2c1C
inactive: HOP-92 > 100 µM | OVCAR-5 > 100 µM | K562 > 96.4 µM | NCI-H226 > 74.5 µM | PC-3 > 100 µM | SK-MEL-28 > 71.8 µM | SF-539 58.3 µM | Hs-578T 28.6 µM | ACHN 97.7 µM | A549 > 83.8 µM | EKVX > 100 µM | UO-31 33 µM | MDA-MB-231 > 70.8 µM | COLO 205 59 µM | SR 37.8 µM | NCI/ADR-RES 35.1 µM | SW-620 > 80.4 µM | MCF7 26.1 µM | MDA-N 58.2 µM | TK-10 > 100 µM

NC(=O)C(c1ccccc1)N1OC2C(=O)N(Cc3ccccc3)C(=O)C2C1c1cccc(Oc2ccc(Cl)cc2)c1 (stereo not given)
inactive: HOP-92 33 µM | OVCAR-5 32.1 µM | K562 26 µM | NCI-H226 26.8 µM | PC-3 33.4 µM | SK-MEL-28 79.3 µM | SF-539 18.7 µM | Hs-578T 49.1 µM | ACHN 20.4 µM | A549 31.4 µM | EKVX 27.1 µM | UO-31 2.73 µM | MDA-MB-231 37.1 µM | COLO 205 17.5 µM | SR 22.7 µM | NCI/ADR-RES 34 µM | SW-620 48.8 µM | MCF7 28 µM | MDA-N 20.7 µM | TK-10 30.9 µM

O=C(CCc1cc(O)ccc1O)OCCc1ccccc1
inactive: HOP-92 2.96 µM | OVCAR-5 27.4 µM | K562 1.4 µM | NCI-H226 > 28.3 µM | PC-3 4.91 µM | SK-MEL-28 25.1 µM | SF-539 3.83 µM | Hs-578T 16.1 µM | ACHN 4.33 µM | A549 > 100 µM | EKVX 16.6 µM | UO-31 4.6 µM | MDA-MB-231 15.6 µM | COLO 205 14.2 µM | SR 5.6 µM | NCI/ADR-RES 19.1 µM | SW-620 16.3 µM | MCF7 15.8 µM | MDA-N 12.7 µM | TK-10 14.7 µM

CCN(CC)/[N+]([O-])=N/OCOC(C)=O
inactive: HOP-92 > 100 µM | OVCAR-5 > 100 µM | K562 > 100 µM | NCI-H226 > 100 µM | PC-3 > 100 µM | SK-MEL-28 > 100 µM | SF-539 > 100 µM | Hs-578T > 100 µM | ACHN > 100 µM | A549 > 100 µM | EKVX > 100 µM | UO-31 > 100 µM | MDA-MB-231 > 100 µM | COLO 205 > 100 µM | SR 43.4 µM | NCI/ADR-RES > 100 µM | SW-620 > 100 µM | MCF7 > 100 µM | MDA-N > 100 µM | TK-10 > 100 µM
